# Measured values as given in PubChem BioAssay (NCI).
#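 Values below derive from 48-hour exposures of cells grown in 96-well plates, with endpoints linearly interpolated between the two concentrations bracketing the appropriate inhibition level. TGI marks complete inhibition of growth.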
# Key:
# Test in all cases: NCI-60 cell line screen, 48 h
# [1] = tested on: HCT-116 colon
# [2] = tested on: RXF 393 renal
# [3] = tested on: DMS 273 small cell lung
# [4] = tested on: OVCAR-4 ovarian
# [5] = tested on: NCI-H226 lung
# [6] = tested on: A549 NSCLC
# [7] = tested on: SF-268 CNS
# [8] = tested on: SR leukemia
# [9] = tested on: SF-539 CNS
# [10] = tested on: 786-0 renal
# [11] = tested on: NCI-H460 lung
# [12] = tested on: HOP-92 NSCLC
# [13] = tested on: KM12 colon
# [14] = tested on: HT29 colon
# [15] = tested on: SK-MEL-2 melanoma
# [16] = tested on: HCT-15 colon
# [17] = tested on: M19-MEL melanoma
# [18] = tested on: SNB-19 CNS
# [19] = tested on: U251 CNS
# [20] = tested on: IGROV1 ovarian
# [21] = tested on: MOLT-4 leukemia
# [22] = tested on: A498 renal
# [23] = tested on: LOX IMVI melanoma
# [24] = tested on: K-562 leukemia
# [25] = tested on: SK-MEL-5 melanoma
# [26] = tested on: SK-MEL-28 melanoma
# [27] = tested on: CAKI-1 renal
# [28] = tested on: SNB-78 CNS
# [29] = tested on: SF-295 CNS
# [30] = tested on: KM20L2 colon
# [31] = tested on: M14 melanoma
# [32] = tested on: NCI-H23 lung
# [33] = tested on: ACHN renal
# [34] = tested on: HOP-62 NSCLC
# [35] = tested on: OVCAR-3 ovarian
# [36] = tested on: OVCAR-5 ovarian
# [37] = tested on: COLO 205 colon
# [38] = tested on: OVCAR-8 ovarian
# [39] = tested on: UO-31 renal
# [40] = tested on: UACC-257 melanoma
# [41] = tested on: LXFL 529 NSCLC
# [42] = tested on: XF 498 CNS
# [43] = tested on: EKVX NSCLC
# [44] = tested on: RPMI-8226 leukemia
# [45] = tested on: SW-620 colon
# [46] = tested on: NCI-H522 lung
# [47] = tested on: CCRF-CEM leukemia
# [48] = tested on: HL-60(TB) leukemia
# [49] = tested on: TK-10 renal
# [50] = tested on: DU-145 prostate
# [51] = tested on: MALME-3M melanoma
# [52] = tested on: MCF7 breast
# [53] = tested on: SK-OV-3 ovarian
# [54] = tested on: MDA-MB-231 breast
# [55] = tested on: SN12C renal
# [56] = tested on: HS 578T breast
# [57] = tested on: MDA-N
# [58] = tested on: T-47D breast
# [59] = tested on: SNB-75 CNS
# [60] = tested on: PC-3 prostate
# [61] = tested on: MDA-MB-435
# [62] = tested on: UACC-62 melanoma
# [63] = tested on: BT-549 breast
# [64] = tested on: HCC-2998 colon
# [65] = tested on: NCI/ADR-RES ovarian
compound,measurement,setting,value
CC(=O)Oc1ccc2c(=O)c(C(C)=O)coc2c1,TGI,[1],> 100 µM
same,TGI,[2],> 100 µM
same,TGI,[3],> 100 µM
same,TGI,[4],> 100 µM
same,TGI,[5],> 100 µM
same,TGI,[6],> 100 µM
same,TGI,[7],> 100 µM
same,TGI,[8],> 100 µM
same,TGI,[9],> 100 µM
same,TGI,[10],> 100 µM
same,TGI,[11],> 100 µM
same,TGI,[12],> 100 µM
same,TGI,[13],> 100 µM
same,TGI,[14],> 100 µM
same,TGI,[15],> 100 µM
same,TGI,[16],> 100 µM
same,TGI,[17],> 100 µM
same,TGI,[18],> 100 µM
same,TGI,[19],> 100 µM
same,TGI,[20],> 100 µM
same,TGI,[21],> 100 µM
same,TGI,[22],> 100 µM
same,TGI,[23],> 100 µM
same,TGI,[24],> 100 µM
same,TGI,[25],> 100 µM
same,TGI,[26],> 100 µM
same,TGI,[27],> 100 µM
same,TGI,[28],> 100 µM
same,TGI,[29],> 100 µM
same,TGI,[30],> 100 µM
same,TGI,[31],> 100 µM
same,TGI,[32],> 100 µM
same,TGI,[33],> 100 µM
same,TGI,[34],> 100 µM
same,TGI,[35],> 100 µM
same,TGI,[36],> 100 µM
same,TGI,[37],> 100 µM
same,TGI,[38],> 100 µM
same,TGI,[39],> 100 µM
same,TGI,[40],> 100 µM
same,TGI,[41],> 100 µM
same,TGI,[42],> 100 µM
same,TGI,[43],> 100 µM
same,TGI,[44],> 100 µM
same,TGI,[45],> 100 µM
same,TGI,[46],> 100 µM
same,TGI,[47],> 100 µM
same,TGI,[48],> 100 µM
same,TGI,[49],> 100 µM
O=S(=O)(O)c1c(Cl)c(Cl)c(O)c2ncccc12,TGI,[1],16.6 µM
same,TGI,[2],44.5 µM
same,TGI,[4],47.1 µM
same,TGI,[5],64.3 µM
same,TGI,[6],28.3 µM
same,TGI,[7],13.8 µM
same,TGI,[8],27.6 µM
same,TGI,[9],> 56.7 µM
same,TGI,[50],61.4 µM
same,TGI,[10],21.1 µM
same,TGI,[51],31.1 µM
same,TGI,[52],21.6 µM
same,TGI,[11],25.5 µM
same,TGI,[12],47.8 µM
same,TGI,[53],25.8 µM
same,TGI,[13],33.2 µM
same,TGI,[54],> 93.1 µM
same,TGI,[55],40.8 µM
same,TGI,[14],24 µM
same,TGI,[15],45 µM
same,TGI,[16],27.1 µM
same,TGI,[18],44.1 µM
same,TGI,[19],47.2 µM
same,TGI,[56],54.4 µM
same,TGI,[20],16 µM
same,TGI,[21],20.1 µM
same,TGI,[22],26 µM
same,TGI,[23],7.99 µM
same,TGI,[24],> 48.5 µM
same,TGI,[57],43.6 µM
same,TGI,[25],28.6 µM
same,TGI,[26],39.8 µM
same,TGI,[27],65.4 µM
same,TGI,[29],33.2 µM
same,TGI,[31],27.1 µM
same,TGI,[32],29.6 µM
same,TGI,[33],26.2 µM
same,TGI,[58],22 µM
same,TGI,[34],17.6 µM
same,TGI,[35],42.3 µM
same,TGI,[59],39.3 µM
same,TGI,[36],42 µM
same,TGI,[60],> 59.6 µM
same,TGI,[61],30.5 µM
same,TGI,[37],31.8 µM
same,TGI,[38],51.3 µM
same,TGI,[62],29.7 µM
same,TGI,[39],22.7 µM
same,TGI,[63],67.3 µM
same,TGI,[40],97.6 µM
same,TGI,[43],41.6 µM
same,TGI,[44],> 83.6 µM
same,TGI,[45],> 72.4 µM
same,TGI,[46],21.4 µM
same,TGI,[47],31.7 µM
same,TGI,[64],31.4 µM
same,TGI,[48],4.75 µM
same,TGI,[65],49.7 µM
same,TGI,[49],27.4 µM
C=CC(C)(C)NC(C(=O)N1CCC[C@H]1c1nc(-c2nc(C(=O)OCC=C(C)C)c(C)o2)c(C)o1)C(C)C (stereo partly specified),TGI,[1],> 100 µM
same,TGI,[2],> 91.4 µM
same,TGI,[4],> 100 µM
same,TGI,[5],> 87.7 µM
same,TGI,[6],> 100 µM
same,TGI,[7],> 100 µM
same,TGI,[8],> 100 µM
same,TGI,[9],> 68.7 µM
same,TGI,[50],> 100 µM
same,TGI,[10],> 100 µM
same,TGI,[51],> 100 µM
same,TGI,[52],> 82.8 µM
same,TGI,[11],> 100 µM
same,TGI,[12],> 100 µM
same,TGI,[53],> 100 µM
same,TGI,[13],> 90.6 µM
same,TGI,[54],> 100 µM
same,TGI,[55],> 72.2 µM
same,TGI,[14],> 86.8 µM
same,TGI,[15],> 73.4 µM
same,TGI,[16],> 95.5 µM
same,TGI,[18],> 100 µM
same,TGI,[19],> 78.1 µM
same,TGI,[56],> 100 µM
same,TGI,[20],> 100 µM
same,TGI,[21],> 100 µM
same,TGI,[22],> 100 µM
same,TGI,[23],> 74.5 µM
same,TGI,[24],> 100 µM
same,TGI,[57],56.2 µM
same,TGI,[25],> 72.7 µM
same,TGI,[26],> 100 µM
same,TGI,[27],99.8 µM
same,TGI,[29],> 74.8 µM
same,TGI,[31],> 100 µM
same,TGI,[32],> 100 µM
same,TGI,[33],> 68.1 µM
same,TGI,[58],> 100 µM
same,TGI,[34],> 100 µM
same,TGI,[35],> 100 µM
same,TGI,[59],> 100 µM
same,TGI,[36],> 100 µM
same,TGI,[60],> 100 µM
same,TGI,[61],> 72 µM
same,TGI,[37],> 100 µM
same,TGI,[38],> 100 µM
same,TGI,[62],> 60.9 µM
same,TGI,[39],> 65.1 µM
same,TGI,[63],> 100 µM
same,TGI,[40],> 100 µM
same,TGI,[43],> 90.1 µM
same,TGI,[44],> 100 µM
same,TGI,[45],> 100 µM
same,TGI,[46],> 100 µM
same,TGI,[47],> 100 µM
same,TGI,[64],> 100 µM
same,TGI,[48],71.6 µM
same,TGI,[65],> 100 µM
same,TGI,[49],> 100 µM
CCCCCC(=O)OC[n+]1ccc2c(C)c3[nH]c4ccc(OC)cc4c3c(C)c2c1,TGI,[5],31 µM
same,TGI,[6],13.7 µM
same,TGI,[7],> 100 µM
same,TGI,[8],> 100 µM
same,TGI,[9],1.17 µM
same,TGI,[50],3.19 µM
same,TGI,[10],1.51 µM
same,TGI,[51],> 63.6 µM
same,TGI,[52],1.96 µM
same,TGI,[11],1.04 µM
same,TGI,[53],3.03 µM
same,TGI,[54],1.83 µM
same,TGI,[15],> 100 µM
same,TGI,[20],3.71 µM
same,TGI,[21],> 100 µM
same,TGI,[22],2.17 µM
same,TGI,[25],> 100 µM
same,TGI,[27],> 23 µM
same,TGI,[29],1.72 µM
same,TGI,[30],> 100 µM
same,TGI,[33],4.78 µM
same,TGI,[58],13.1 µM
same,TGI,[34],2.28 µM
same,TGI,[35],> 100 µM
same,TGI,[36],2.24 µM
same,TGI,[62],3.31 µM
same,TGI,[39],3.31 µM
same,TGI,[46],> 100 µM
same,TGI,[49],9.74 µM
